Laboratory results taken from PMC4556614 (PLoS ONE, 2015).
Read-outs that look alike come from different tables or passages of the source.

What was measured:
OCT2 [1] = target: T1, OCT2 (Homo sapiens, UniProt O15244); assay: in vitro
OCT2 [2] = target: T1, OCT2; assay: Inhibition of OCT2-mediated [3H]MPP+ uptake in HEK-OCT2 cells
[3] = test drug 20 µM, MPP+ 50 μM, 3 min, net uptake HEK-OCT2 minus HEK-VC
[4] = test drug 200 µM, MPP+ 50 μM, 3 min, net uptake HEK-OCT2 minus HEK-VC
[5] = human, pH 7.3, probe [14C]metformin, 1000 µM, % Inhibition of OCT2-dependent MF uptake at 20 µM (mean ± SEM), test drug 20 µM, metformin 1000 μM, 3 min, net uptake HEK-OCT2 minus HEK-VC
[6] = human, pH 7.3, probe [14C]metformin, 1000 µM, % Inhibition of OCT2-dependent MF uptake at 200 µM (mean ± SEM), test drug 200 µM, metformin 1000 μM, 3 min, net uptake HEK-OCT2 minus HEK-VC
[7] = human, pH 7.3, probe [3H]MPP+, 50 µM

T1 sequence (O15244 whole entry): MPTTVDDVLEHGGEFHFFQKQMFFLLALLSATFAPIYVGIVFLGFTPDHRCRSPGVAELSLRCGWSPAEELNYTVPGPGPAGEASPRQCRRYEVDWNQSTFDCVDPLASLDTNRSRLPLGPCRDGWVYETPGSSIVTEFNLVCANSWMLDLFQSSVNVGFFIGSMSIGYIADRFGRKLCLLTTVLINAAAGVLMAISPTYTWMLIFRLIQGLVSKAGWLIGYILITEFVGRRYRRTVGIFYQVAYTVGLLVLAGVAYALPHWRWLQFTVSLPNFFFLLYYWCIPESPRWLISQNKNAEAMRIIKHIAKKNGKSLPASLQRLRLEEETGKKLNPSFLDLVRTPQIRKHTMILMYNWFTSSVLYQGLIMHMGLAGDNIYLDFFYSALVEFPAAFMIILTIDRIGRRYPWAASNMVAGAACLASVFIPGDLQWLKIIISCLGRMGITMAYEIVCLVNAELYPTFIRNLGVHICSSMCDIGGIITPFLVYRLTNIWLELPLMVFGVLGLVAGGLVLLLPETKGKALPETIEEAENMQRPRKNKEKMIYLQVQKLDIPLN

SMILES	% Inhibition of OCT2-dependent MF uptake at 200 µM (mean ± SEM) (OCT2 [1]; human, pH 7.3)	% Inhibition of OCT2-dependent MPP+ uptake at 20 µM (mean ± SEM) (OCT2 [2]; [3])	% Inhibition of OCT2-dependent MPP+ uptake at 200 µM (mean ± SEM) (OCT2 [2]; [4])	% Inhibition of OCT2-dependent MF uptake at 20 µM (mean ± SEM) (OCT2 [1]; human, pH 7.3)	other results
OCCN1CCN(CCCN2c3ccccc3Sc3ccc(C(F)(F)F)cc32)CC1 [Fluphenazine]	99.3 ± 0.4	39.3 ± 7.0%	94.3 ± 3.3%	–	–
COc1ccc2cccc(CCNC(C)=O)c2c1 [Agomelatine]	–	–	–	–	inhibition at 3 min, 20 µM (OCT2 [1]; [5]): 71.3 ± 2.6%; inhibition at 3 min, 200 µM (OCT2 [1]; [6]): 95.5 ± 1.8%; inhibition at 3 min, 20 µM (OCT2 [2]; [7]): -10.3 ± 2.7%; inhibition at 3 min, 200 µM (OCT2 [2]; [7]): 39.9 ± 3.5%
C[C@]12CCC(=O)C=C1[C@@H]1C[C@@H]1[C@H]1[C@@H]3[C@@H]4C[C@@H]4[C@@]4(CCC(=O)O4)[C@@]3(C)CC[C@@H]12 [Drospirenone]	–	–	–	–	inhibition at 3 min, 20 µM (OCT2 [1]; [5]): > 85%; inhibition at 3 min, 200 µM (OCT2 [1]; [6]): 99.1 ± 0.7%; % Inhibition of OCT2-dependent MF uptake at 20 µM (mean ± SEM) (OCT2 [1]; test drug 20 µM, metformin 1000 μM, 3 min, net uptake HEK-OCT2 minus HEK-VC): 88.0 ± 7.3%; inhibition at 3 min, 20 µM (OCT2 [2]; [7]): 0%; inhibition at 3 min, 200 µM (OCT2 [2]; [7]): 42.6 ± 1.4%
COc1ccc(C(CN(C)C)C2(O)CCCCC2)cc1 (centres unmarked) [Venlafaxine]	72.2 ± 2.5	-43.3 ± 13.0%	-54.3 ± 13.1%	17.6 ± 3.2	–
NS(=O)(=O)c1cc2c(cc1Cl)NCNS2(=O)=O [Hydrochlorothiazide]	-38.6 ± 8.5	-55.4 ± 10.2%	-36.6 ± 7.4%	-34.7 ± 16.9	–
COC(=O)[C@H](c1ccccc1Cl)N1CCc2sccc2C1 [Clopidogrel]	92.8 ± 5.4	–	–	70.0 ± 2.0	% Inhibition of OCT2-dependent MPP+ uptake at 20 µM (mean ± SEM) (OCT2 [2]; human, pH 7.3): 12.5 ± 0.8; % Inhibition of OCT2-dependent MPP+ uptake at 200 µM (mean ± SEM) (OCT2 [2]; human, pH 7.3): 41.5 ± 4.0
CCCCC1=NC2(CCCC2)C(=O)N1Cc1ccc(-c2ccccc2-c2nnn[nH]2)cc1 [Irbesartan]	-14.2 ± 17.8	-18.9 ± 12.4%	-50.7 ± 14.1%	-16.2 ± 14.4	–
C=C1CC[C@H](O)C/C1=C/C=C1\CCC[C@]2(C)[C@@H]([C@H](C)CCCC(C)C)CC[C@@H]12 [Cholecalciferol]	17.1 ± 5.0	6.8 ± 5.1%	10.4 ± 6.1%	2.8 ± 15.7	–
CCOC(=O)[N-]c1cn(N2CCOCC2)n[o+]1 [Molsidomine]	69.5 ± 1.7	-1.7 ± 8.3%	3.8 ± 4.9%	41.4 ± 3.6	–
NCC1(CC(=O)O)CCCCC1 [Gabapentin]	37.6 ± 4.2	–	–	9.1 ± 8.2	% Inhibition of OCT2-dependent MPP+ uptake at 20 µM (mean ± SEM) (OCT2 [2]; human, pH 7.3): -8.4 ± 9.6; % Inhibition of OCT2-dependent MPP+ uptake at 200 µM (mean ± SEM) (OCT2 [2]; human, pH 7.3): -12.5 ± 9.4
CCOC(=O)[C@H](CCc1ccccc1)N[C@@H](C)C(=O)N1[C@H](C(=O)O)C[C@@H]2CCC[C@@H]21 [Ramipril]	35.4 ± 2.9	72.5 ± 7.4%	83.6 ± 6.2%	12.9 ± 4.1	–
CN1C(=O)CN=C(c2ccccc2F)c2cc([N+](=O)[O-])ccc21 [Flunitrazepam]	92.9 ± 0.9	5.1 ± 8.4%	57.5 ± 6.6%	74.1 ± 3.1	–
O=C1CCc2ccc(OCCCCN3CCN(c4cccc(Cl)c4Cl)CC3)cc2N1 [Aripiprazole]	82.0 ± 6.7%	6.7 ± 3.6%	16.9 ± 5.2%	53.4 ± 9.1%	–
O=C1CN=C(c2ccccn2)c2cc(Br)ccc2N1 [Bromazepam]	77.9 ± 1.4%	–	–	27.6 ± 2.6%	% Inhibition of OCT2-dependent MPP+ uptake at 20 µM (mean ± SEM) (OCT2 [2]; human, pH 7.3): -16.3 ± 9.0%; % Inhibition of OCT2-dependent MPP+ uptake at 200 µM (mean ± SEM) (OCT2 [2]; human, pH 7.3): 14.7 ± 8.3%
Cc1ccc(-c2ncc(Cl)cc2-c2ccc(S(C)(=O)=O)cc2)cn1 [Etoricoxib]	99.2 ± 2.7	2.3 ± 4.0%	72.4 ± 2.2%	64.1 ± 6.8	–
CN(C)CCC[C@@]1(c2ccc(F)cc2)OCc2cc(C#N)ccc21 [Escitalopram]	93.8 ± 3.6	-26.3 ± 7.9%	26.0 ± 10.1%	62.6 ± 9.2	–
N[C@@H]1C[C@H]1c1ccccc1 (racemic) [Tranylcypromine]	–	–	–	–	% Inhibition of OCT2-dependent MF uptake at 20 µM (mean ± SEM) (OCT2 [1]): 39.0 ± 3.3; % Inhibition of OCT2-dependent MF uptake at 200 µM (mean ± SEM) (OCT2 [1]): 79.1 ± 2.9; % Inhibition of OCT2-dependent MPP+ uptake at 20 µM (mean ± SEM) (OCT2 [2]): 27.8 ± 5.6; % Inhibition of OCT2-dependent MPP+ uptake at 200 µM (mean ± SEM) (OCT2 [2]): 54.7 ± 3.1
O=[N+]([O-])O[C@H]1CO[C@H]2[C@@H]1OC[C@H]2O[N+](=O)[O-] [Isosorbide dinitrate]	–	–	–	–	inhibition at 3 min, 20 µM (OCT2 [1]; human, pH 7.3): -19.5 ± 6.9%; inhibition at 3 min, 200 µM (OCT2 [1]; human, pH 7.3): 21.7 ± 4.4%; inhibition at 3 min, 20 µM (OCT2 [2]; human, pH 7.3): -20.4 ± 5%; inhibition at 3 min, 200 µM (OCT2 [2]; human, pH 7.3): -82.4 ± 8%
CCOc1nc2cccc(C(=O)O)c2n1Cc1ccc(-c2ccccc2-c2nnn[nH]2)cc1 [Candesartan]	–	–	–	–	inhibition at 3 min, 20 µM (OCT2 [1]; [5]): 48 ± 3.7%; inhibition at 3 min, 200 µM (OCT2 [1]; [6]): 69.7 ± 2.7%; inhibition at 3 min, 20 µM (OCT2 [2]; [7]): 0.9 ± 0.1%; inhibition at 3 min, 200 µM (OCT2 [2]; [7]): -2.4 ± 4%
CCCCc1nc(Cl)c(CO)n1Cc1ccc(-c2ccccc2-c2nn[nH]n2)cc1 [Losartan]	7.4 ± 8.2	-41.8 ± 8.1%	-59.5 ± 6.1%	-9.3 ± 10.4	–
Oc1ncnc2[nH]ncc12 [Allopurinol]	–	–	–	–	inhibition at 3 min, 20 µM (OCT2 [1]; [5]): 24.8 ± 6.9%; inhibition at 3 min, 200 µM (OCT2 [1]; [6]): 26.8 ± 3.9%; inhibition at 3 min, 20 µM (OCT2 [2]; [7]): 35.6 ± 7.5%; inhibition at 3 min, 200 µM (OCT2 [2]; [7]): 52.7 ± 8.8%
COc1ccc2c3c1O[C@H]1C[C@@H](O)C=C[C@@]31CCN(C)C2 [Galantamine]	92.5 ± 1.2	-11.7 ± 9.4%	12.3 ± 7.0%	51.5 ± 2.8	–
CC1(C)S[C@@H]2[C@H](NC(=O)[C@H](N)c3ccc(O)cc3)C(=O)N2[C@H]1C(=O)O [Amoxicillin]	4.5 ± 5.1%	-21.0 ± 11.1%	-13.5 ± 14.5%	3.2 ± 6.6%	–
COc1ccccc1OCCNCC(O)COc1cccc2[nH]c3ccccc3c12 (centres unmarked) [Carvedilol]	98.6 ± 0.5%	32.2 ± 3.7%	88.5 ± 1.5%	84.3 ± 5.2%	–
C[C@H]1O[C@@H](O[C@H]2[C@@H](O)C[C@H](O[C@H]3[C@@H](O)C[C@H](O[C@H]4CC[C@@]5(C)[C@H](CC[C@@H]6[C@@H]5CC[C@]5(C)[C@@H](C7=CC(=O)OC7)CC[C@]65O)C4)O[C@@H]3C)O[C@@H]2C)C[C@H](O)[C@@H]1O [Digitoxin]	32.8 ± 2.9	-32.6 ± 3.8%	-32.4 ± 8.5%	28.7 ± 7.9	–
O=C(CCCN1CCC(O)(c2ccc(Cl)cc2)CC1)c1ccc(F)cc1 [Haloperidol]	66.9 ± 5.3	-11.2 ± 5.0%	-10.6 ± 5.1%	6.4 ± 8.9	–
